In patent US12133838B2, “Homotaurine-enriched compositions and methods of use for animal health” (FB Maria srl, priority 2015, dated 2024):

Assays:
elderly dogs = experiment: cognitive learning test in a maze, elderly dogs; format: in vivo, dog; details: for Average number of wrong tries of the aged dogs able to pass the learning test (average score) / Percentage of the aged dogs able to pass the learning test: dogs more than 10 years
Text: (§1) The experiment began by selecting two groups of elderly dogs (age more than 10 years, 16 subjects per group) and two groups of young adult dogs (between 3 and 6 years of age, 6 subjects per group), who were divided randomly balancing them per age, seniority, and size. The dogs underwent a cognitive learning tests (Spatial reversal learning is impaired by aging in pet dogs, P. Mongillo et al., Age, 2013, 35 (6): 2273-2282), in a simple maze built to this trial. Passing the test consisted in the dog's ability to learn to get out of the labyrinth in the direction that he himself had chosen in the first successful attempt. The number of attempts has been the test score: the lower the number of attempts, better cognitive performance. Immediately after the test, two groups of dogs (one old and one young) started to receive food integration of homotaurine capsules. Homotaurine at was administered orally once daily (PO SID) at a dose of 1 g/subject. After 15 days the dogs underwent a memory test (learning result application of first test) and, if they have passed the test, to a subsequent reverse learning test, which consisted in learning to exit the labyrinth from the opposite direction to that previously learned within a defined number of trials. After 4 months of homotaurine supplementation, initial learning test was repeated, with the same modalities of the initial test. The first evaluable results regarding the comparison between the cognitive learning tests, carried out on two groups of dogs over 10 years of age, a period in which aging-correlated brain behavior changes can be observed.

young adult dogs = experiment: cognitive learning test in a maze, young adult dogs; format: in vivo, dog; details: young dogs (under 6 years of age), homotaurine 1 g/subject PO SID
Text: as §1, with “After” for “After 15 days the dogs underwent a memory test (learning result application of first test) and, if they have passed the test, to a subsequent reverse learning test, which consisted in learning to exit the labyrinth from the opposite direction to that previously learned within a defined number of trials. After”, “test.” for “test. The first evaluable results regarding the comparison between the cognitive learning tests, carried out on two groups of dogs over 10 years of age, a period in which aging-correlated brain behavior changes can be observed.”

[1] = 1° test, before start of homotaurine
[2] = 2° test, after 4 months of homotaurine 1 g/subject PO SID

**Q.** NCCCS(=O)(=O)O [homotaurine, 3-amino-1-propanesulfonic acid] was tested. Which “Average number of wrong tries of the aged dogs able to pass the learning test (average score)” value (elderly dogs; [1]) did it give?
**A.** 6.67

**Q.** What about the “Percentage of the aged dogs able to pass the learning test” value (elderly dogs; [1]) of the same compound?
**A.** 75%

**Q.** What about the “Average number of wrong tries of the aged dogs able to pass the learning test (average score)” value (elderly dogs; [2]) of the same compound?
**A.** 5.67

**Q.** What about the “Percentage of the aged dogs able to pass the learning test” value (elderly dogs; [2]) of the same compound?
**A.** 75%

**Q.** What about the “change of average score, second versus first test” value (elderly dogs; aged dogs, about four months of homotaurine 1 g/subject PO SID) of the same compound?
**A.** −1.0

**Q.** And the “failures in the learning test” value (elderly dogs; first test, before start of homotaurine, aged dogs)?
**A.** 25%

**Q.** And the “failures in the learning test” value (elderly dogs; second test, about four months later, 1 g/subject PO SID, aged dogs)?
**A.** 25%

**Q.** And the “change of average score” value (young adult dogs)?
**A.** −2.6
